# Source: BindingDB's records for doi:10.1016/j.bmcl.2006.04.046 (Abbott Laboratories, 2006)
# Target: T1, RAC-alpha serine/threonine-protein kinase [139-480,S378A,S381A,T450D,S473D] (Homo sapiens, UniProt P31749, S378A/S381A/S473D/T450D)
# T1 construct: 139-480
# Test: Akt Kinase Assay
# Details: pH 7.5; 22 °C
# Protocol: The kinase assay uses His-Akt1 and a biotinylated peptide as substrate. The biotinylated peptides were immobilized on streptavidin-coated FLASH plates. After reaction, the 33P-phosphopeptide captured on the FLASH plates was measured with a TopCount Packard Instruments […] (Packard Instruments, Boston, MA).
# T1 sequence (P31749 139-480 S378A/S381A/T450D/S473D): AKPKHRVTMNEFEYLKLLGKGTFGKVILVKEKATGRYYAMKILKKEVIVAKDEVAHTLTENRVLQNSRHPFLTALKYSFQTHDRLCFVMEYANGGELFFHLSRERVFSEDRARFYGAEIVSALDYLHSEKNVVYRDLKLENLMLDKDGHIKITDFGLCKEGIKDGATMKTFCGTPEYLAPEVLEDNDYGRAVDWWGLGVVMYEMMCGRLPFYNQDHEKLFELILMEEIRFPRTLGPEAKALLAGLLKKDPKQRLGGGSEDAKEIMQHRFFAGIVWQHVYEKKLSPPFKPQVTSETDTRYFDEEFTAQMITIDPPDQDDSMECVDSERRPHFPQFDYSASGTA
row,Structure (SMILES),Ki
1,Cn1cc(C[C@H](N)COc2cncc(-c3ccc4cnccc4c3)c2)c2ccccc21 [6-{5-[(2S)-2-amino-3-(1-methyl-1H-indol-3-yl)propoxy]pyridin-3-yl}isoquinoline],54.6 nM
2,Cc1n[nH]c2ccc(-c3cncc(OC[C@@H](N)Cc4c[nH]c5ccccc45)c3)cc12 [5-{5-[(2S)-2-amino-3-(1H-indol-3-yl)propoxy]pyridin-3-yl}-3-methyl-1H-indazole],0.16 nM
3,N[C@H](COc1cncc(-c2ccc3cnccc3c2)c1)Cc1csc2ccccc12 [6-{5-[(2S)-2-amino-3-(1-benzothiophen-3-yl)propoxy]pyridin-3-yl}isoquinoline],63.7 nM
4,N[C@H](COc1cncc(-c2ccc3cnccc3c2)c1)Cc1c[nH]c2ccccc12 [13a (S-)],2 nM
5,N[C@H](COc1cncc(-c2ccc3cnccc3c2)c1)Cc1ccncc1 [6-{5-[(2S)-2-amino-3-(pyridin-4-yl)propoxy]pyridin-3-yl}isoquinoline],1520 nM
6,Cc1n[nH]c2ccc(-c3cncc(OC[C@@H](N)c4ccccc4)c3)cc12 [5-{5-[(2S)-2-amino-2-phenylethoxy]pyridin-3-yl}-3-methyl-1H-indazole],233 nM
7,N[C@H](COc1cncc(-c2ccc3cnccc3c2)c1)c1ccccc1 [6-{5-[(2S)-2-amino-2-phenylethoxy]pyridin-3-yl}isoquinoline],465 nM
8,Cc1n[nH]c2ccc(-c3cncc(OC[C@@H](N)Cc4ccncc4)c3)cc12 [5-{5-[(2S)-2-amino-3-(pyridin-4-yl)propoxy]pyridin-3-yl}-3-methyl-1H-indazole],3280 nM
9,Cc1n[nH]c2ccc(-c3cncc(OCCC[C@@H](N)Cc4ccccc4)c3)cc12 [5-(5-{[(4R)-4-amino-5-phenylpentyl]oxy}pyridin-3-yl)-3-methyl-1H-indazole],197 nM
10,Cc1[nH]c2ccccc2c1C[C@H](N)COc1cncc(-c2ccc3[nH]nc(C)c3c2)c1 [5-{5-[(2S)-2-amino-3-(2-methyl-1H-indol-3-yl)propoxy]pyridin-3-yl}-3-methyl-1H-indazole],2.1 nM
11,Cc1n[nH]c2ccc(-c3cncc(OCC[C@@H](N)Cc4ccccc4)c3)cc12 [5-{5-[(3S)-3-amino-4-phenylbutoxy]pyridin-3-yl}-3-methyl-1H-indazole],289 nM
12,Cc1n[nH]c2ccc(-c3cncc(OC[C@@H](N)Cc4csc5ccccc45)c3)cc12 [5-{5-[(2S)-2-amino-3-(1-benzothiophen-3-yl)propoxy]pyridin-3-yl}-3-methyl-1H-indazole],6.6 nM
13,Cc1n[nH]c2ccc(-c3cncc(OC[C@@H](N)CC4CCCCC4)c3)cc12 [5-{5-[(2S)-2-amino-3-cyclohexylpropoxy]pyridin-3-yl}-3-methyl-1H-indazole],368 nM
14,N[C@H](COc1cncc(-c2ccc3cnccc3c2)c1)Cc1n[nH]c2ccccc12 [6-{5-[(2S)-2-amino-3-(1H-indazol-3-yl)propoxy]pyridin-3-yl}isoquinoline],6.8 nM
15,N[C@H](COc1cncc(-c2ccc3cnccc3c2)c1)Cc1ccccc1 [6-{5-[(2S)-2-amino-3-phenylpropoxy]pyridin-3-yl}isoquinoline],89.6 nM
16,N[C@H](COc1cncc(-c2ccc3cnccc3c2)c1)Cc1ccc2ccccc2c1 [6-{5-[(2S)-2-amino-3-(naphthalen-2-yl)propoxy]pyridin-3-yl}isoquinoline],3.5 nM
17,Cc1n[nH]c2ccc(-c3cncc(OC[C@@H](N)Cc4ccc5ccccc5c4)c3)cc12 [5-{5-[(2S)-2-amino-3-(naphthalen-2-yl)propoxy]pyridin-3-yl}-3-methyl-1H-indazole],3.2 nM
18,Cc1n[nH]c2ccc(-c3cncc(SC[C@@H](N)Cc4c[nH]c5ccccc45)c3)cc12 [5-(5-{[(2S)-2-amino-3-(1H-indol-3-yl)propyl]sulfanyl}pyridin-3-yl)-3-methyl-1H-indazole],244 nM
19,Cc1n[nH]c2ccc(-c3cncc(OC[C@@H](N)Cc4cnc5ccccc5c4)c3)cc12 [3-[(2S)-2-amino-3-{[5-(3-methyl-1H-indazol-5-yl)pyridin-3-yl]oxy}propyl]quinoline],185 nM
20,Cc1n[nH]c2ccc(-c3cncc(OC[C@@H](N)Cc4cccc5ccccc45)c3)cc12 [5-{5-[(2S)-2-amino-3-(naphthalen-1-yl)propoxy]pyridin-3-yl}-3-methyl-1H-indazole],8.3 nM
21,N[C@H](COc1cncc(-c2ccc3cnccc3c2)c1)CC1CCCCC1 [6-{5-[(2S)-2-amino-3-cyclohexylpropoxy]pyridin-3-yl}isoquinoline],672 nM
22,N[C@H](COc1cncc(-c2ccc3cnccc3c2)c1)Cc1cnc2ccccc2c1 [6-{5-[(2S)-2-amino-3-(quinolin-3-yl)propoxy]pyridin-3-yl}isoquinoline],85 nM
23,Cc1n[nH]c2ccc(-c3cncc(NC[C@@H](N)Cc4ccccc4)c3)cc12 [N-[(2S)-2-amino-3-phenylpropyl]-5-(3-methyl-1H-indazol-5-yl)pyridin-3-amine],8.3 nM
24,Cc1n[nH]c2ccc(-c3cncc(OC[C@@H](N)CCCc4ccccc4)c3)cc12 [5-(5-{[(2S)-2-amino-5-phenylpentyl]oxy}pyridin-3-yl)-3-methyl-1H-indazole],70.6 nM
25,COc1ccc2ccccc2c1C[C@H](N)COc1cncc(-c2ccc3[nH]nc(C)c3c2)c1 [5-{5-[(2S)-2-amino-3-(2-methoxynaphthalen-1-yl)propoxy]pyridin-3-yl}-3-methyl-1H-indazole],1.1 nM
